Results taken from patent US20240398737A1, “FUNCTIONALIZED LONG-CHAIN HYDROCARBON MONO- AND DI-CARBOXYLIC ACIDS AND DERIVATIVES THEREOF, AND THEIR USE FOR THE PREVENTION OR TREATMENT OF DISEASE” (Espervita Therapeutics, Inc., priority 2021, published 2024).
Entries after “also recorded” stand apart in the source; their conditions may differ. Like-named read-outs stand apart in the source and are kept apart here.

Tests used:
MELK = MELK (Homo sapiens (Human), UniProt Q14680); assay: Wild type kinase screen: MELK; assay type: biochemical; conditions: compound at 10 μM, 10 μM ATP, Data 1 and Data 2 duplicates
ERK7/MAPK15 = ERK7/MAPK15 (Homo sapiens (Human), UniProt Q8TD08); assay: Wild type kinase screen: ERK7/MAPK15; assay type: biochemical; conditions: compound at 10 μM, 10 μM ATP, Data 1 and Data 2 duplicates
c-Kit = c-Kit (Homo sapiens (Human), UniProt P10721); assay: Wild type kinase screen: c-Kit; assay type: biochemical; conditions: compound at 10 μM, 10 μM ATP, Data 1 and Data 2 duplicates
human ACLY = human ACLY (Homo sapiens (Human), UniProt P53396); assay: ATP-citrate lyase (ACLY) enzymatic assay (ADP-Glo); assay type: biochemical; set-up: key to Compound IC50 (M) ACLY: *: No detectable inhibition or compound activity; conditions: recombinant human ACLY; 10 concentrations from 300 μM; Runs 1-3
Experimental: ATP citrate lyase was obtained from Sino Biological Inc. Cat #11769-H07B, Lot #LC08DE1701. It was prepared from a DNA sequence encoding the human ACLY (P53396) (Met 1-Met 1101) expressed in Baculovirus-Insect Cells, with a polyhistidine tag at the N-terminus. The recombinant human ACLY consists of 1120 amino acids and has a calculated molecular mass of 123 kDa. It migrates as an approximately 110 kDa band in SDS-PAGE under reducing conditions. The enzyme came as a lyophilized powder in sterile 20 mM Tris, 500 mM NaCl, pH 8.0, 10% glycine. Normally 5%-8% trehalose and mannitol are added as protectants before lyophilization. The recombinant human ACLY from Sino Biological was formulated in 45 mM Tris-HCl, pH 8.0, 124 mM NaCl, 2.4 mM KCl, 18 mM glutathione, 10% glycerol, and 3 mM DTT.
To detect ADP produced from ACL assay, the ADP-Glo™ assay format from Promega, Madison, WI, was used, to detect the conversion of ATP to ADP. […] This assay is performed in two steps: i) after the ACL-mediated enzymatic reaction that utilizes ATP and produces ADP, ADP-Glo™ Reagent is added to terminate the kinase reaction and deplete the remaining ATP, and ii) the Kinase Detection Reagent is added to convert ADP to ATP and allow the newly synthesized ATP to be measured using a luciferase/luciferin reaction. The light generated, measured in a luminometer, correlates to the amount of ADP generated in the ACL assay, which is indicative of ACL activity.
Data represent nM or μM ADP produced, % Activity (relative to no inhibitor controls), and curve fits were performed by GraphPad Prism software. The IC50 concentration-response curves were generated for ADPGlo™ using recombinant human ACL from Sino Biologicals Inc.

NEK2 = NEK2 (Homo sapiens (Human), UniProt P51955); assay: Wild type kinase screen: NEK2; assay type: biochemical; conditions: compound at 10 μM, 10 μM ATP, Data 1 and Data 2 duplicates
[1] = Toxicokinetics in female rats (4-day oral gavage study, Day 1); assay type: in vivo; conditions: female rat plasma; for Dose proportionality of the increases in mean Cmax and AUC0-24: 100 to 300 mg/kg/day; for Cmax / Tmax / AUC(0-t): Wistar Han (RccHan:WIST); for Cmax / Tmax / AUC(0-t) / AUC0-24 (h*ng/mL): Day 1; for AUC(0-t): read-out: AUC0-24
Experimental: Dosing Solutions. The dosing solutions of Compound I-1 or Compound I-32 were prepared as follows: a 60-mg/mL stock solution was prepared for Compound I-1 or Compound I-32 by dissolving Compound I-1 or Compound I-32 in DI water. Two molar equivalents of NaOH was added for every 1 mole of Compound I-1 or Compound I-32 (1.1 μL of 5N NaOH was added for every mg of Compound I-32 or Compound I-1). The pH of the stock solution for Compound I-1 or Compound I-32 was adjusted to achieve a final pH of 8.2 to 8.6. The resultant stock formulations were further diluted with vehicle to achieve the 30 mg/mL concentration. The 30-mg/mL formulations were diluted with control article to achieve the 10-mg/mL concentration. All dilution calculations were based on the nominal concentration of the stock solution. Formulations of Compound I-1 or Compound I-32 were prepared on the day of dosing were stored at room temperature (15 to 30° C.) and used within 8 hours of preparation completion. The control was 1.5% (w/v) carboxymethyl cellulose+0.2% (v/v) Tween 20 in DI water for as Group 1 formulations. The vehicle used for Compound I-1 and Compound I-32 formulations was 3% (w/v) carboxymethyl cellulose+0.4% (v/v) Tween 20 in DI water.
Bioanalytical and Toxicokinetic Analyses. Blood samples (approximately 0.3 mL) were collected from nonfasted toxicokinetic animals via a jugular vein on Day 1 of the dosing phase, as indicated in the following table. Samples were collected predose and approximately 1, 2, 4, and 24 hours postdose.
Blood was collected into tubes containing potassium (K2) EDTA as the anticoagulant. Samples were maintained on chilled cryoracks and were centrifuged within 1 hour of collection. Plasma was harvested into two approximately equal aliquots and stored on dry ice until placed in a freezer, set to maintain −60 to −80° C., until analyzed. Plasma samples were analyzed for Compound I-1 and Compound I-32 content using a generic Tier 1 qualified liquid chromatography-tandem mass spectrometry (LC-MS/MS) method.
In-Life Phase. Animals were dosed once daily for up to 4 days via oral gavage at a volume of 10 mL/kg. Animals in Group 2 and 3 were administered Compound I-1. Animals in Group 4 and 5 were administered Compound I-32. The control article for Group 1 was 1.5% (w/v) carboxymethyl cellulose+0.2% (v/v) Tween 20 in deionized (DI) water. The vehicle used to prepare Compound I-1 and Compound I-32 formulations was 3% (w/v) carboxymethyl cellulose+0.4% (v/v) Tween 20 in DI water.

FLT1/VEGFR1 = FLT1/VEGFR1 (Homo sapiens (Human), UniProt P17948); assay: Wild type kinase screen: FLT1/VEGFR1; assay type: biochemical; conditions: compound at 10 μM, 10 μM ATP, Data 1 and Data 2 duplicates
female Wistar Han rats = assay: 4-day oral gavage toxicity study in female rats; conditions: 4 days; for Compound-related effects in hematology or coagulation test results / Compound-related mortality, clinical observations, body weight effects, or changes in food consumption: 100 or 300 mg/kg/day oral gavage once daily; for Compound-related macroscopic observations: 100 or 300 mg/kg/day
AURORA C = AURORA C (Homo sapiens (Human), UniProt Q9UQB9); assay: Wild type kinase screen: AURORA C; assay type: biochemical; conditions: compound at 10 μM, 10 μM ATP, Data 1 and Data 2 duplicates
Sequence of AURORA C (Q9UQB9 whole entry): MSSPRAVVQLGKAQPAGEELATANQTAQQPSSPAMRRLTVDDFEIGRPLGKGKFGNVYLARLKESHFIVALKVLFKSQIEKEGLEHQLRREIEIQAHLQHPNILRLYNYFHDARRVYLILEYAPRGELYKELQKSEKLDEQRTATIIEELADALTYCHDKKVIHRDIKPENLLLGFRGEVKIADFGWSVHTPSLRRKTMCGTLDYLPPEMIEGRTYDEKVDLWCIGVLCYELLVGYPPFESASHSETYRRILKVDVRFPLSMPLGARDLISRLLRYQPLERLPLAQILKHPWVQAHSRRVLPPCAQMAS

Sequence of MELK (Q14680 whole entry, species assumed): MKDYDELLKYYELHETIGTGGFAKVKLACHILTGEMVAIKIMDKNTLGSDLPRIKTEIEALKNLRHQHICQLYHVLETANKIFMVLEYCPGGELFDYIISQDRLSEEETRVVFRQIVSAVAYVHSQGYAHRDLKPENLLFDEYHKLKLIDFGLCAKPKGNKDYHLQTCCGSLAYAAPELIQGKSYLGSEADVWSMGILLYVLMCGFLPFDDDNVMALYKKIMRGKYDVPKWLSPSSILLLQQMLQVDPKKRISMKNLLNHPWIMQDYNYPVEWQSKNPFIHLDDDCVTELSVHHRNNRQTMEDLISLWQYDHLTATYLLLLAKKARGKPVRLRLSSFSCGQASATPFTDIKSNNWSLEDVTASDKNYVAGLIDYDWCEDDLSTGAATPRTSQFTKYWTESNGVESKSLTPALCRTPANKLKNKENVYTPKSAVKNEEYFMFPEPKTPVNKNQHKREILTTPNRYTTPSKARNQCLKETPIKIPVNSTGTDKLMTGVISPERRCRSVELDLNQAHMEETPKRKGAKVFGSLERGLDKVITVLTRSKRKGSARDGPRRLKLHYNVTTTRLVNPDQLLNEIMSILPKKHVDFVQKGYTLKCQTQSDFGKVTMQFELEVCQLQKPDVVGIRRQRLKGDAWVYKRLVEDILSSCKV
Sequence of human ACLY (P53396 whole entry): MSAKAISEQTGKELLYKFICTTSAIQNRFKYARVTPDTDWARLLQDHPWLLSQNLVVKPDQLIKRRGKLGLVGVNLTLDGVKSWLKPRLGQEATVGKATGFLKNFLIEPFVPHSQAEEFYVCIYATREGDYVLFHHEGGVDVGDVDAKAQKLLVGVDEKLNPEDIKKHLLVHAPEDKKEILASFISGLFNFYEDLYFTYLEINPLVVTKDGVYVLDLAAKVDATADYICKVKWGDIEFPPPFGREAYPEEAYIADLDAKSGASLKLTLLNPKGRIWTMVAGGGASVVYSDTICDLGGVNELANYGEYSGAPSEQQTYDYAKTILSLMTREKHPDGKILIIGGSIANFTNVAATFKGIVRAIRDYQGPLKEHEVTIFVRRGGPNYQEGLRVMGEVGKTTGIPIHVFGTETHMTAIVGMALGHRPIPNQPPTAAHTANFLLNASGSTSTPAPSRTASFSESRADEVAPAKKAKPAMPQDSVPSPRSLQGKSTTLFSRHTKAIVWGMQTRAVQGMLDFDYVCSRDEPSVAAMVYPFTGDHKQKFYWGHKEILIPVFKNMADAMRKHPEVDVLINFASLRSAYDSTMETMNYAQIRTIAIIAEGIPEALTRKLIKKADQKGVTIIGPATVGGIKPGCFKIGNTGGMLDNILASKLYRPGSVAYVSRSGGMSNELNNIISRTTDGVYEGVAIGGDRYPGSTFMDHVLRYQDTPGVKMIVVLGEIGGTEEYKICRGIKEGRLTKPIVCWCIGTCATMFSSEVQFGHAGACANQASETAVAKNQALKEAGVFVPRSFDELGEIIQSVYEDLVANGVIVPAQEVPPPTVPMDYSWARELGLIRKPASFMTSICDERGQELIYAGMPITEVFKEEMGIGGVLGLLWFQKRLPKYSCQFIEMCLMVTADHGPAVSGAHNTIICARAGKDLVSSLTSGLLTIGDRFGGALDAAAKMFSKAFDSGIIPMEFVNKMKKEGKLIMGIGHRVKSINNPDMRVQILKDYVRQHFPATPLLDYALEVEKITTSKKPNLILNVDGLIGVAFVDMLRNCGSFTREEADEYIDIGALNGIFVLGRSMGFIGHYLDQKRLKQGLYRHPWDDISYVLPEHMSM
Sequence of NEK2 (P51955 whole entry, species assumed): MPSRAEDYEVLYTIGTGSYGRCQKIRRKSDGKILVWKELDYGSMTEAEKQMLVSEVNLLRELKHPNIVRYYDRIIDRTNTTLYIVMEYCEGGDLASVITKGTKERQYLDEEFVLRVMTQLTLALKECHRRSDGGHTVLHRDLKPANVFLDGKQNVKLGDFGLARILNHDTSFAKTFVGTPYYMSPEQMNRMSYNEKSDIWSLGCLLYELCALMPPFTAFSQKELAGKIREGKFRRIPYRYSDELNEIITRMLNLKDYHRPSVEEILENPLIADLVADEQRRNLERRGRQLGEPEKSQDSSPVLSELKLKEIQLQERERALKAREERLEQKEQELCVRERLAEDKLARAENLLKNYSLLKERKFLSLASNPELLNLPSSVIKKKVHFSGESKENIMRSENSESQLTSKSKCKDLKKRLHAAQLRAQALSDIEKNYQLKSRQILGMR
Sequence of FLT1/VEGFR1 (P17948 27-1338): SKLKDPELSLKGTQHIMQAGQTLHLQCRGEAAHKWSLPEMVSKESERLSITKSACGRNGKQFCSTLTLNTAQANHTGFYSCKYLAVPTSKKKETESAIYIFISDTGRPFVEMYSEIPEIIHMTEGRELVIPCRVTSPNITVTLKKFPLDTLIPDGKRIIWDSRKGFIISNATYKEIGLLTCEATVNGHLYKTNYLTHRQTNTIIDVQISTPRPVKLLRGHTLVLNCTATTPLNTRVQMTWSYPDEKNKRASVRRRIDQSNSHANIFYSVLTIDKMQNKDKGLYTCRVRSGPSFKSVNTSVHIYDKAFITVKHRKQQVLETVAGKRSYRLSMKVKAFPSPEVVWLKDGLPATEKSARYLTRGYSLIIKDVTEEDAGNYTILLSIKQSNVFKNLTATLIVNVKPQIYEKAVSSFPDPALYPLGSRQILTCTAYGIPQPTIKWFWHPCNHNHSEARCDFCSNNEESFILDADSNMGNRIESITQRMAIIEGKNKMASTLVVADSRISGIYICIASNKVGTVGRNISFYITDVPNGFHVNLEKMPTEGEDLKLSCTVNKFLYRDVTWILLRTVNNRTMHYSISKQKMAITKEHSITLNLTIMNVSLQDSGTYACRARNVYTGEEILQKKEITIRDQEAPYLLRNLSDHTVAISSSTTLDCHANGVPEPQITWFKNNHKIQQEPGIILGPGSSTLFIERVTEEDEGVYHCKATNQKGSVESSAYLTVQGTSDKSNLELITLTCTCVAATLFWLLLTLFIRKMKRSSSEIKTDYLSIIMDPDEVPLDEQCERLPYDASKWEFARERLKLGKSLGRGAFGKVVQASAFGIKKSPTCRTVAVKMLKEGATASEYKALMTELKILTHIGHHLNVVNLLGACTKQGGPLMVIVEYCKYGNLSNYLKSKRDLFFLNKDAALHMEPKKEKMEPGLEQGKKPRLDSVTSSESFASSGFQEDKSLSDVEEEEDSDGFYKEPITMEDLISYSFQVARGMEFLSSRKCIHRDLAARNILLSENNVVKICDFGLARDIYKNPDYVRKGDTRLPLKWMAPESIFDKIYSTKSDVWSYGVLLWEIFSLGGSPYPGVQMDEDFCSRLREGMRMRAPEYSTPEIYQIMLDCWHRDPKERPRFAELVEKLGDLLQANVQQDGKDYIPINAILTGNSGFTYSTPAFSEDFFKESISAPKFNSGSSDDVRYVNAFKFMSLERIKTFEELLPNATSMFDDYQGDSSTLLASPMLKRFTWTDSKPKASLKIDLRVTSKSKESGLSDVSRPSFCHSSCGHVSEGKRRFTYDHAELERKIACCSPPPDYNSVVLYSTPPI
Sequence of ERK7/MAPK15 (Q8TD08 whole entry): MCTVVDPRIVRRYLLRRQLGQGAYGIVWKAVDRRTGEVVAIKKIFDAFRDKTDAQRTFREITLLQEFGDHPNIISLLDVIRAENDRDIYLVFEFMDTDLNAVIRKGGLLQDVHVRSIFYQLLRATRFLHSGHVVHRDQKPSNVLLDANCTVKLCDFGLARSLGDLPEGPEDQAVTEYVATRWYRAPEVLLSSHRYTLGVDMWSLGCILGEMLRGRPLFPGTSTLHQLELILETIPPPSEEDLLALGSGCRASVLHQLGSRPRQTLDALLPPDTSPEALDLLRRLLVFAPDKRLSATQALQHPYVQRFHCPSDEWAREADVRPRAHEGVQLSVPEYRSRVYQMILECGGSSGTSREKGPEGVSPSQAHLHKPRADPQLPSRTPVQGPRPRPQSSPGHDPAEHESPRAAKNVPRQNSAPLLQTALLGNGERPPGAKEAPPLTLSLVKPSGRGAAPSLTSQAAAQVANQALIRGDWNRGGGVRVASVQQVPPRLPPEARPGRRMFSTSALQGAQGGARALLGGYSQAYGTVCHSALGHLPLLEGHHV

Compound	% Enzyme Activity (relative to DMSO controls) (MELK) [%]	% Enzyme Activity (relative to DMSO controls) (ERK7/MAPK15) [%]	% Enzyme Activity (relative to DMSO controls) (c-Kit) [%]	Compound IC50 (M) ACLY (human ACLY)	% Enzyme Activity (relative to DMSO controls) (NEK2) [%]	Dose proportionality of the increases in mean Cmax and AUC0-24 [1]	Cmax ([1]; 100 mg/kg/day oral gavage) [µg/mL]	Tmax ([1]; 100 mg/kg/day oral gavage) [h]	AUC(0-t) ([1]; 100 mg/kg/day oral gavage) [µg·h/mL]	Cmax ([1]; 300 mg/kg/day oral gavage) [µg/mL]	Tmax ([1]; 300 mg/kg/day oral gavage) [h]	AUC(0-t) ([1]; 300 mg/kg/day oral gavage) [µg·h/mL]	% Enzyme Activity (relative to DMSO controls) (FLT1/VEGFR1) [%]	Adversity of the effects at this dose (female Wistar Han rats; 300 mg/kg/day)	Albumin:globulin ratio (clinical chemistry) (female Wistar Han rats; 300 mg/kg/day)	Globulin concentration (clinical chemistry) (female Wistar Han rats; 300 mg/kg/day)	Compound-related effects in hematology or coagulation test results (female Wistar Han rats)	Compound-related mortality, clinical observations, body weight effects, or changes in food consumption (female Wistar Han rats)	Compound-related macroscopic observations (female Wistar Han rats)	% Enzyme Activity (relative to DMSO controls) (AURORA C) [%]	also measured
CC(C)(CCCCc1ccc(CCCCC(C)(C)C(=O)O)cc1)C(=O)O [Compound I-1, 6-[4-(5-carboxy-5-methylhexyl)-phenyl]-2,2-dimethylhexanoic acid]	106.55	100.06	81.06	*	85.17	less than dose proportional	415	2	5460	787	1	7520	87.88	adverse	minimally higher	minimally lower	No	No	No	93.1	AUC0-24 (h*ng/mL) ([1]; 100 mg/kg/day oral gavage): 5,460,000 h*ng/mL; Adversity of the effects at this dose (female Wistar Han rats; 100 mg/kg/day): nonadverse; Albumin:globulin ratio (clinical chemistry) (female Wistar Han rats; 100 mg/kg/day): minimally higher; Globulin concentration (clinical chemistry) (female Wistar Han rats; 100 mg/kg/day): minimally lower; Kidney microscopic findings (female Wistar Han rats; 300 mg/kg/day): tubular degeneration/necrosis, tubular regeneration, and increased mitoses; Liver microscopic findings (female Wistar Han rats; >100 mg/kg/day (so in the source)): increase in mitoses in hepatocytes
CC(C)(CCCCc1cccc(CCCCC(C)(C)C(=O)O)c1)C(=O)O [Compound I-32, 6-[3-(5-carboxy-5-methylhexyl)-phenyl]-2,2-dimethylhexanoic acid]	110.73	102.21	71.52	*	87.7	approximately dose proportional	142	2	2030	406	4	7880	91.15	nonadverse	minimally higher	minimally lower	No	No	No	97.44	AUC0-24 (h*ng/mL) ([1]; 300 mg/kg/day oral gavage): 7,880,000 h*ng/mL; Liver microscopic findings (female Wistar Han rats; 300 mg/kg/day): increase in mitoses in hepatocytes; also recorded: periportal hepatocyte vacuolation; Serum urea nitrogen concentration (female Wistar Han rats; 300 mg/kg/day, considered potentially compound-related): Minimally lower
